{"source": "paper PMC12220852", "about": "“An adamantane‐based ligand as a novel chemical tool for thermosensory TRPM8 channel therapeutic modulation” (The Febs Journal, 2025)", "key": {"[1]": {"system": "capsaicin‐induced excitability in murine nociceptors", "assay": "Multielectrode array (MEA): capsaicin-induced firing in nociceptors", "format": "cell-based", "details": "1 μM compound, 0.5 μM capsaicin, P2/P1", "method": "Additionally, we investigated the effect of compound 23 on capsaicin and AITC‐induced excitability in murine nociceptors. Employing an IC50 value of 1 μM for TRPV1 and 5 μM for TRPA1 of firing inhibition by compound 23 (Fig. 4), we interrogated its ability to modulate neuronal excitability. As for TRPM8, our experimental design involved a protocol of dual agonist pulses interspersed with a washing pulse to minimize agonist‐induced channel desensitization. Compound 23 was administered 1 min prior to and during the second agonist pulse.\nPrimary cultures of neonatal dorsal root ganglia were used for multielectrode array (MEA) and patch‐clamp experiments following established methodologies previously described. Neonatal dorsal root ganglia (DRGs) were obtained from Wistar rats (3–5 days old) and were isolated and digested with 0.25% (w/v) collagenase (type IA) in DMEM GlutaMax with 1% (v/v) penicillin/streptomycin (P/S) solution for 1 h at 37 °C in a 5% CO2 Thermo Scientific incubator. Following digestion, DRGs were mechanically dissociated and passed through a 100 μm cell strainer to obtain single‐cell suspensions. Suspensions were washed with DMEM GlutaMax with 10% (v/v) fetal bovine serum (FBS) and 1% (v/v) penicillin/streptomycin (P/S). Cells were then seeded in microelectrode array chambers coated with poly‐L‐lysine (8.3 μg·mL^−1) and laminin (5 μg·mL^−1). […]"}, "[2]": {"assay": "Metabolic stability and metabolite profile in mouse liver microsomes (MLM)", "format": "in vitro ADME", "details": "after 1 h at 37 °C, 50 μM substrate", "method": "Because of the lack of systemic activity of compound 23, we evaluated the in vitro plasmatic and hepatic metabolic stability. To this aim, compound 23 was exposed to mouse plasma and mouse liver microsome (MLM) fractions, and the residual substrate was measured after 1 h. Under these conditions, the residual substrate was about 97% and 90% in plasma and microsomes, respectively, denoting that this molecule suffers from mild hydrolysis of the ester group.\nMetabolic biotransformation of compound 23 was investigated by tandem high‐resolution mass spectrometry using the software COMPOUND DISCOVERER 3.2™.\nThe standard incubation mixture (250 μL final volume) was carried out in a 50 mM Tris (tris[hydroxymethyl]aminomethane) buffer (pH 7.4) containing 150 mM KCl, […], 3.3 mM MgCl2, 1.3 mM NADPNa2, 3.3 mM glucose 6‐phosphate, 0.4 units·mL^−1 glucose 6‐phosphate dehydrogenase, acetonitrile as cosolvent (1% of total volume), and the substrate (50 μM). After pre‐equilibration of the mixture, an appropriate volume of MLM suspension was added to give a final protein concentration of 1.0 mg·mL^−1. The mixture was shaken for 60 min at 37 °C using a horizontal shaking thermostatic bath while protecting the samples from light. Control incubations were carried out without the presence of substrate, or NADPH regenerating system, or microsomes. Each incubation was stopped by the addition of 250 μL of ice‐cold acetonitrile, vortexed, and centrifuged at 13 000 r.p.m. for 5 min [68]. The supernatants were analyzed by LC‐UV and LC‐HRMS equipment (see Tables S1 and S2, Fig. S79 for full parameters setting in the Supporting Information).\nThe metabolic stability of the compound 23 was determined in vitro by measuring the residual peak area after incubation by LC‐UV analysis. Samples were further processed by LC‐HRMS equipment for metabolite profiling. Raw data files were processed using both XCALIBUR® and COMPOUND DISCOVERER 3.2® software (Thermo Scientific) using a customized workflow for the detection and identification of the expected and unknown metabolites (Fig. S80)."}}}
{"smiles": "O=C(COC(=O)c1ccccc1-c1ccccc1)NC12CC3CC(CC(C3)C1)C2", "note": "[Compound 23, 2‐((3S,5S,7S)‐adamantan‐1‐ylamino)‐2‐oxoethyl [1,1′‐biphenyl]‐2‐carboxylate]", "values": [{"measurement": "attenuation of capsaicin‐induced firing", "setting": "[1]", "result": 30, "unit": "%"}, {"measurement": "residual substrate in mouse liver microsomes without NADPH regenerating system", "setting": "[2]", "result": "~90", "unit": "%"}, {"measurement": "residual substrate in mouse liver microsomes with NADPH regenerating system", "setting": "[2]; monooxygenase system activated", "result": "about 42%"}]}
